Experimental data reported in patent publication US20040248775A1, “Methods for screening inhibitors of apoptosis” (Wyeth, priority 2003, published 2004).

Molecular target: T1, NBS mutant NALP1 (Homo sapiens, UniProt Q9C000, G339E/K340A)
T1 construct: to generate full-length NALP1 in frame with EGFP; expressed in transfected cells; host or cells: HeLa cells, transient transfection; S-100 extract used
T1 sequence (Q9C000 1-1473 G339E/K340A): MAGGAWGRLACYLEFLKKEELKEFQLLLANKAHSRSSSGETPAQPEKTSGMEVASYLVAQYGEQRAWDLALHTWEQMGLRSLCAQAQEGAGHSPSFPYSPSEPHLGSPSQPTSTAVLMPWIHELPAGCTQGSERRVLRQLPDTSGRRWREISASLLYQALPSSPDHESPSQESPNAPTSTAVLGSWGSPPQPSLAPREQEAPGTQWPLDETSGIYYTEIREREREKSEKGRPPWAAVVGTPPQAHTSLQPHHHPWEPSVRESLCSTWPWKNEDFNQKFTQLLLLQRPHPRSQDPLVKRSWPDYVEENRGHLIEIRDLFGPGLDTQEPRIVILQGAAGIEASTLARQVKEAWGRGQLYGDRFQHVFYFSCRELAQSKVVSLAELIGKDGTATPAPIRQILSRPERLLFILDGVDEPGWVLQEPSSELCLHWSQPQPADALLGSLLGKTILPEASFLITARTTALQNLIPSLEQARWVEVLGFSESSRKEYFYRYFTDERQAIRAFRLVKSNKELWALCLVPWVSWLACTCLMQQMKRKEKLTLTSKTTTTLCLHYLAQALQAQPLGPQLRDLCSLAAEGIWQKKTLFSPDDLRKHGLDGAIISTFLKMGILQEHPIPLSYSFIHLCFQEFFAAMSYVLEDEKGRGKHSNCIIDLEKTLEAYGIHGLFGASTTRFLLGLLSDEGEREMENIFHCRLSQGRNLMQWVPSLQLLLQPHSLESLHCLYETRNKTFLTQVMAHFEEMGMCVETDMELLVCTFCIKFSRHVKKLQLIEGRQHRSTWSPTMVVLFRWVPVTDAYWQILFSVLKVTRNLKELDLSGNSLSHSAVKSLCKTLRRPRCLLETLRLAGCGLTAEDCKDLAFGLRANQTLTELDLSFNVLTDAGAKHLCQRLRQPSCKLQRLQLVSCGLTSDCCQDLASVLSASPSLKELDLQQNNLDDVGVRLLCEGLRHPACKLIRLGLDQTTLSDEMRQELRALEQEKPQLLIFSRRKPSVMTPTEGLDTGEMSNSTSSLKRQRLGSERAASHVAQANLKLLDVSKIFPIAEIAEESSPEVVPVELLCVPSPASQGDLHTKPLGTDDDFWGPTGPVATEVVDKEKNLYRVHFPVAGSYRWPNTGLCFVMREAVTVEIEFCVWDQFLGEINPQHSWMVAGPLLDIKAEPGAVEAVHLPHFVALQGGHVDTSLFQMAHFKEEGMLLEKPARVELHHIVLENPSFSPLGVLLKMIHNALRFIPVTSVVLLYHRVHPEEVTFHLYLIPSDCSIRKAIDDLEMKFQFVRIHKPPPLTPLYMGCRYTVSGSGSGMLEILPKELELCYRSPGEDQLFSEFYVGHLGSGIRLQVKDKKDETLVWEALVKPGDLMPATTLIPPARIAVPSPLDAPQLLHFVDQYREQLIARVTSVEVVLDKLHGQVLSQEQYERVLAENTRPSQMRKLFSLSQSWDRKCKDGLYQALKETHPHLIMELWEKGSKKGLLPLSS
Test: Fluorimetric DEVDase (caspase-3) assay in HeLa cell extracts expressing NBS mutant NALP1-EGFP
Type: biochemical
Conditions: 2 mM dATP, 2 mM MgCl2, 1 hour, Ac-DEVD-AMC substrate
Experimental: Cell extract preparation and fluorimetric assay of caspase activity. Preparation of cell extracts, dATP incubation and caspase-3 activities assays were performed as described by Liu et al. (1996). Briefly, HeLa cells were grown in DMEM, 10% FBS. Cells were plated in T175 flasks to 60% confluence. Control vector pEGFP or wild-type or NBS mutant NALP1-EGFP expression plasmids were transfected into HeLa cells using Lipofectamine Plus. Cells were collected in homogenization buffer (20 mM HEPES pH 7.5, 10 mM KCl, 1 mM sodium EDTA, […], 1 mM sodium EGTA, 0.1% CHAPS, 1 mM DTT, 0.1 mM PMSF and protease inhibitor cocktail tablets (Roche)), 24 hours after transfection. Cells were chilled on ice for 15 minutes and homogenized by douncing 30 times in a glass douncer. Samples were centrifuged at 1000×g for 10 minutes at 4° C. […] After 2 hours incubation, liberation of AMC (7-amino-4-methylcoumarin) from the substrate was monitored using excitation/emission wavelength pairs (λex/λem) of 380/460 nm using a SpectraFluor Plus instrument (Tecan). Triplicate samples were evaluated with or without specific inhibitors. […] Normalized data from multiple experiments were expressed as means±standard deviation. For each experiment, the expression of EGFP-tagged NALP1 proteins was analyzed by anti-GFP immunoblot and quantified by densitometry.

Nc1ncnc2c1ncn2[C@H]1C[C@H](O)[C@@H](COP(=O)(O)OP(=O)(O)OP(=O)(O)O)O1 [dATP]
DEVDase activity, extracts with NBS mutant NALP1: did not respond
